Results on 5 compounds are retold here after ChEMBL document CHEMBL1131904, “Peptidic immunosuppressants from the fungus Trichoderma polysporum” (Bioorg Med Chem Lett, 1999).

The species named for assay [1] is Mus musculus. The experiment in a line: Inhibitory activity against the proliferation of lymphocytes in mouse allogenic mixed lymphocyte reaction (MLR). Format: functional, organism-based.
For assay [2], the species on record is Mus musculus. Description: Inhibitory activity against the production of interleukin 4 (IL-4). Format: functional, organism-based.

The structures appear in SMILES notation. Numbered stars: 1 amine (or outer) side, 2 acyl side, 3 side chain; on linkers, the order of the positions; unused ones are H or OH. Square brackets hold non-standard residues; d marks the D form. Peptide text beside a SMILES is read from it. * marks the point of attachment. ξ: configuration not given here. X1 = CCC(=O)C[C@@H](O)C[C@@H](C)C[C@H](N[*:1])C(=O)[*:2]; Alaψ(CH2NMeCH2CH2OH) = C[C@@H](CN(C)CCO)N*; Decanoyl(2R-Me) = CCCCCCCC[C@@H](C)C(=O)*; X2 = CCCCCCC[C@H](O)[C@H](C)C(=O)*; Aib = CC(C)(N)C(=O)O; ξA = CC(N)C(=O)O Bounds are passed on as bounds.

For orientation: IC50 means the concentration that inhibits the measured activity by half. A low value points to greater potency. With `CCCCCCCC[C@@H](C)C(=O)N1CCC[C@H]1C(=O)N[C@@H](C[C@H](C)C[C@H](O)CC(=O)CC)C(=O)N[C@@H](C)C(=O)NC(C)(C)C(=O)NC(C)(C)C(=O)N[C@H](C(=O)N[C@@H](C)C(=O)NC(C)(C)C(=O)NC(C)(C)C(=O)N[C@@H](C)CN(C)CCO)[C@@H](C)CC` ({Decanoyl(2R-Me)}-P[X1]A[Aib][Aib]IA[Aib][Aib]-{Alaψ(CH2NMeCH2CH2OH)}), the concentration for half-maximal inhibition (IC50) in the assay listed under Mus musculus [1] is 5.2 nM; in the assay filed under Mus musculus [2], > 1000 nM.

Regarding `CCCCCCCC[C@@H](C)C(=O)N1CCC[C@H]1C(=O)N[C@@H](C[C@H](C)C[C@H](O)CC(=O)CC)C(=O)N[C@@H](C)C(=O)NC(C)(C)C(=O)NC(C)(C)C(=O)N[C@H](C(=O)N[C@@H](C)C(=O)NC(C)(C)C(=O)NC(C)C(=O)N[C@@H](C)CN(C)CCO)[C@@H](C)CC` (stereo partly drawn) ({Decanoyl(2R-Me)}-P[X1]A[Aib][Aib]IA[Aib][ξA]-{Alaψ(CH2NMeCH2CH2OH)}), the IC50 in the assay filed under Mus musculus [1] is 20.5 nM; in the assay filed under Mus musculus [2], > 1000 nM.

For the compound `CCCCCCCC[C@@H](C)C(=O)N1CCC[C@H]1C(=O)N[C@@H](C[C@H](C)C[C@H](O)CC(=O)CC)C(=O)N[C@@H](C)C(=O)NC(C)(C)C(=O)NC(C)(C)C(=O)N[C@H](C(=O)N[C@@H](C)C(=O)NC(C)(C)C(=O)NC(C)C(=O)N[C@@H](C)CN(C)CCO)C(C)C` (stereo partly drawn) ({Decanoyl(2R-Me)}-P[X1]A[Aib][Aib]VA[Aib][ξA]-{Alaψ(CH2NMeCH2CH2OH)}), the IC50 in the assay filed under Mus musculus [1] was 60.4 nM; in the assay filed under Mus musculus [2], > 1000 nM.

For the compound `CCCCCCCC[C@@H](C)C(=O)N1CCC[C@H]1C(=O)N[C@@H](C[C@H](C)C[C@H](O)CC(=O)CC)C(=O)N[C@@H](C)C(=O)NC(C)(C)C(=O)NC(C)(C)C(=O)N[C@H](C(=O)N[C@@H](C)C(=O)NC(C)(C)C(=O)NC(C)(C)C(=O)N[C@@H](C)CN(C)CCO)C(C)C` ({Decanoyl(2R-Me)}-P[X1]A[Aib][Aib]VA[Aib][Aib]-{Alaψ(CH2NMeCH2CH2OH)}), the results for the IC50 in the assay listed under Mus musculus [1] and in the assay listed under Mus musculus [2] were 10.7 nM and > 1000 nM, respectively.

Take `CCCCCCC[C@H](O)[C@H](C)C(=O)N1CCC[C@H]1C(=O)N[C@@H](C[C@H](C)C[C@H](O)CC(=O)CC)C(=O)N[C@@H](C)C(=O)NC(C)(C)C(=O)NC(C)(C)C(=O)N[C@H](C(=O)N[C@@H](C)C(=O)NC(C)(C)C(=O)NC(C)(C)C(=O)N[C@@H](C)CN(C)CCO)[C@@H](C)CC` (X2-P[X1]A[Aib][Aib]IA[Aib][Aib]-{Alaψ(CH2NMeCH2CH2OH)}): the half-inhibitory concentration (IC50) in the assay filed under Mus musculus [1] was 294 nM; in the assay filed under Mus musculus [2] it was > 1000 nM.
